This series is described as follows: activity coefficient (dimensionless); of the first substance listed, at infinite dilution; xn = mol fraction of the nth substance listed. Particulars: 101.33 kPa, Liquid, Chromatography, x1 = 0.

Consider 24 compounds from the NIST ThermoML archive (doi:10.1016/j.fluid.2018.07.028).

± gives the expanded uncertainty stated by the source.

With `CCC(C)CC` [3-methylpentane] + CCCC[P+](CCCC)(CCCC)CCCC.O=S(=O)([N-]S(=O)(=O)C(F)(F)F)C(F)(F)F, the activity coefficient was found to be 4.02 ± 0.27 (358.15 K); 4.04 ± 0.28 (368.15 K); 4.06 ± 0.28 (378.15 K); 4.09 ± 0.28 (388.15 K); 4.11 ± 0.28 (398.15 K); 4.13 ± 0.28 (408.15 K).
For `CCC(C)(C)OC` [2-methoxy-2-methylbutane] + CCCC[P+](CCCC)(CCCC)CCCC.O=S(=O)([N-]S(=O)(=O)C(F)(F)F)C(F)(F)F, the activity coefficient by setting is: (358.15 K) 2 ± 0.14; (368.15 K) 2.07 ± 0.14; (378.15 K) 2.13 ± 0.14; (388.15 K) 2.2 ± 0.15; (398.15 K) 2.26 ± 0.15; (408.15 K) 2.32 ± 0.16.
On to `CCCCCC` [hexane] + CCCC[P+](CCCC)(CCCC)CCCC.O=S(=O)([N-]S(=O)(=O)C(F)(F)F)C(F)(F)F, for which the activity coefficient is 4.39 ± 0.3 (358.15 K); 4.41 ± 0.3 (368.15 K); 4.44 ± 0.3 (378.15 K); 4.46 ± 0.3 (388.15 K); 4.49 ± 0.31 (398.15 K); 4.51 ± 0.31 (408.15 K).
On to `CCCCO` [butan-1-ol] + CCCC[P+](CCCC)(CCCC)CCCC.O=S(=O)([N-]S(=O)(=O)C(F)(F)F)C(F)(F)F, for which the activity coefficient reads like this: (358.15 K) 1.67 ± 0.11; (368.15 K) 1.61 ± 0.11; (378.15 K) 1.56 ± 0.1; (388.15 K) 1.51 ± 0.1; (398.15 K) 1.46 ± 0.1; (408.15 K) 1.42 ± 0.09.
Consider `C=CCCCCCCCC` [1-decene] + CCCC[P+](CCCC)(CCCC)CCCC.O=S(=O)([N-]S(=O)(=O)C(F)(F)F)C(F)(F)F, for which the activity coefficient was found to be 7.54 ± 0.51 (358.15 K); 7.48 ± 0.51 (368.15 K); 7.41 ± 0.51 (378.15 K); 7.36 ± 0.5 (388.15 K); 7.3 ± 0.5 (398.15 K); 7.25 ± 0.49 (408.15 K).
As to `CCC(C)O` (centres undefined) [butan-2-ol] + CCCC[P+](CCCC)(CCCC)CCCC.O=S(=O)([N-]S(=O)(=O)C(F)(F)F)C(F)(F)F, the activity coefficient (358.15 K) was 1.53 ± 0.1; the activity coefficient (368.15 K) is 1.49 ± 0.1; the activity coefficient (378.15 K) worked out at 1.46 ± 0.1; the activity coefficient (388.15 K) came to 1.43 ± 0.09; the activity coefficient (398.15 K) was 1.4 ± 0.09; the activity coefficient (408.15 K) was 1.37 ± 0.09.
Turning to `CC1CCCCC1` [methylcyclohexane] + CCCC[P+](CCCC)(CCCC)CCCC.O=S(=O)([N-]S(=O)(=O)C(F)(F)F)C(F)(F)F, the activity coefficient is 3.5 ± 0.24 (358.15 K); 3.49 ± 0.24 (368.15 K); 3.48 ± 0.24 (378.15 K); 3.48 ± 0.24 (388.15 K); 3.47 ± 0.24 (398.15 K); 3.46 ± 0.24 (408.15 K).
Turning to `C1CCOC1` [tetrahydrofuran] + CCCC[P+](CCCC)(CCCC)CCCC.O=S(=O)([N-]S(=O)(=O)C(F)(F)F)C(F)(F)F, the activity coefficient (358.15 K) came out at 0.622 ± 0.043; the activity coefficient (368.15 K) stood at 0.653 ± 0.045; the activity coefficient (378.15 K) stood at 0.682 ± 0.046; the activity coefficient (388.15 K) stood at 0.712 ± 0.047; the activity coefficient (398.15 K) turned out to be 0.742 ± 0.049; the activity coefficient (408.15 K) was 0.772 ± 0.05.
Take `CC(C)(C)O` [2-methylpropan-2-ol] + CCCC[P+](CCCC)(CCCC)CCCC.O=S(=O)([N-]S(=O)(=O)C(F)(F)F)C(F)(F)F: the activity coefficient runs as follows: (358.15 K) 1.41 ± 0.09; (368.15 K) 1.4 ± 0.09; (378.15 K) 1.38 ± 0.09; (388.15 K) 1.37 ± 0.09; (398.15 K) 1.36 ± 0.09; (408.15 K) 1.35 ± 0.09.
For the compound `C1COCCO1` [1,4-dioxane] + CCCC[P+](CCCC)(CCCC)CCCC.O=S(=O)([N-]S(=O)(=O)C(F)(F)F)C(F)(F)F, the activity coefficient by setting is: (358.15 K) 0.795 ± 0.052; (368.15 K) 0.825 ± 0.053; (378.15 K) 0.853 ± 0.055; (388.15 K) 0.884 ± 0.056; (398.15 K) 0.911 ± 0.058; (408.15 K) 0.941 ± 0.059.
`C#CCCCCCC` [1-octyne] + CCCC[P+](CCCC)(CCCC)CCCC.O=S(=O)([N-]S(=O)(=O)C(F)(F)F)C(F)(F)F: the activity coefficient (358.15 K) turned out to be 2.79 ± 0.19; the activity coefficient (368.15 K) was 2.87 ± 0.2; the activity coefficient (378.15 K) came to 2.93 ± 0.2; the activity coefficient (388.15 K) is 3 ± 0.2; the activity coefficient (398.15 K) is 3.07 ± 0.21; the activity coefficient (408.15 K) came to 3.13 ± 0.21.
As to `C#CCCCCC` [1-heptyne] + CCCC[P+](CCCC)(CCCC)CCCC.O=S(=O)([N-]S(=O)(=O)C(F)(F)F)C(F)(F)F, the activity coefficient (358.15 K) turned out to be 2.28 ± 0.16; the activity coefficient (368.15 K) was determined as 2.35 ± 0.16; the activity coefficient (378.15 K) came to 2.42 ± 0.16; the activity coefficient (388.15 K) came out at 2.48 ± 0.17; the activity coefficient (398.15 K) was 2.55 ± 0.17; the activity coefficient (408.15 K) turned out to be 2.62 ± 0.18.
`CCOC(C)=O` [ethyl acetate] + CCCC[P+](CCCC)(CCCC)CCCC.O=S(=O)([N-]S(=O)(=O)C(F)(F)F)C(F)(F)F: the activity coefficient reads like this: (358.15 K) 0.835 ± 0.054; (368.15 K) 0.869 ± 0.056; (378.15 K) 0.905 ± 0.057; (388.15 K) 0.939 ± 0.059; (398.15 K) 0.975 ± 0.061; (408.15 K) 1.01 ± 0.063.
Consider `CCCC(=O)OC` [methyl butanoate] + CCCC[P+](CCCC)(CCCC)CCCC.O=S(=O)([N-]S(=O)(=O)C(F)(F)F)C(F)(F)F, for which the activity coefficient by setting is: (358.15 K) 0.946 ± 0.06; (368.15 K) 0.989 ± 0.062; (378.15 K) 1.03 ± 0.06; (388.15 K) 1.08 ± 0.07; (398.15 K) 1.12 ± 0.07; (408.15 K) 1.17 ± 0.07.
For the compound `C1=CCCCC1` [cyclohexene] + CCCC[P+](CCCC)(CCCC)CCCC.O=S(=O)([N-]S(=O)(=O)C(F)(F)F)C(F)(F)F, the activity coefficient (358.15 K) is 2.24 ± 0.15; the activity coefficient (368.15 K) is 2.27 ± 0.15; the activity coefficient (378.15 K) was 2.29 ± 0.16; the activity coefficient (388.15 K) was determined as 2.32 ± 0.16; the activity coefficient (398.15 K) was determined as 2.34 ± 0.16; the activity coefficient (408.15 K) was found to be 2.37 ± 0.16.
For `CC(C)=O` [acetone] + CCCC[P+](CCCC)(CCCC)CCCC.O=S(=O)([N-]S(=O)(=O)C(F)(F)F)C(F)(F)F, the activity coefficient is, setting by setting: (358.15 K) 0.503 ± 0.038; (368.15 K) 0.524 ± 0.039; (378.15 K) 0.545 ± 0.04; (388.15 K) 0.567 ± 0.041; (398.15 K) 0.587 ± 0.042; (408.15 K) 0.607 ± 0.042.
For the compound `CCCCCCC` [heptane] + CCCC[P+](CCCC)(CCCC)CCCC.O=S(=O)([N-]S(=O)(=O)C(F)(F)F)C(F)(F)F, the activity coefficient is, setting by setting: (358.15 K) 5.4 ± 0.37; (368.15 K) 5.38 ± 0.37; (378.15 K) 5.37 ± 0.37; (388.15 K) 5.35 ± 0.36; (398.15 K) 5.34 ± 0.36; (408.15 K) 5.33 ± 0.36.
As for `C=C(C)c1ccccc1` [(1-methylethenyl)benzene] + CCCC[P+](CCCC)(CCCC)CCCC.O=S(=O)([N-]S(=O)(=O)C(F)(F)F)C(F)(F)F, the activity coefficient is 1.4 ± 0.09 (358.15 K); 1.46 ± 0.1 (368.15 K); 1.52 ± 0.1 (378.15 K); 1.58 ± 0.1 (388.15 K); 1.64 ± 0.11 (398.15 K); 1.7 ± 0.11 (408.15 K).
As to `Cc1ccccc1C` [1,2-dimethylbenzene] + CCCC[P+](CCCC)(CCCC)CCCC.O=S(=O)([N-]S(=O)(=O)C(F)(F)F)C(F)(F)F, the activity coefficient runs as follows: (358.15 K) 1.39 ± 0.09; (368.15 K) 1.43 ± 0.09; (378.15 K) 1.48 ± 0.1; (388.15 K) 1.52 ± 0.1; (398.15 K) 1.57 ± 0.1; (408.15 K) 1.61 ± 0.11.
On to `C=CCCCCC` [1-heptene] + CCCC[P+](CCCC)(CCCC)CCCC.O=S(=O)([N-]S(=O)(=O)C(F)(F)F)C(F)(F)F, for which the activity coefficient by setting is: (358.15 K) 3.96 ± 0.27; (368.15 K) 4 ± 0.27; (378.15 K) 4.05 ± 0.28; (388.15 K) 4.09 ± 0.28; (398.15 K) 4.13 ± 0.28; (408.15 K) 4.17 ± 0.28.
`CC(C)CO` [2-methyl-1-propanol] + CCCC[P+](CCCC)(CCCC)CCCC.O=S(=O)([N-]S(=O)(=O)C(F)(F)F)C(F)(F)F: the activity coefficient reads like this: (358.15 K) 1.57 ± 0.1; (368.15 K) 1.52 ± 0.1; (378.15 K) 1.46 ± 0.1; (388.15 K) 1.41 ± 0.09; (398.15 K) 1.37 ± 0.09; (408.15 K) 1.33 ± 0.09.
With `CC(C)O` [propan-2-ol] + CCCC[P+](CCCC)(CCCC)CCCC.O=S(=O)([N-]S(=O)(=O)C(F)(F)F)C(F)(F)F, the activity coefficient runs as follows: (358.15 K) 1.47 ± 0.1; (368.15 K) 1.42 ± 0.09; (378.15 K) 1.37 ± 0.09; (388.15 K) 1.33 ± 0.09; (398.15 K) 1.29 ± 0.08; (408.15 K) 1.26 ± 0.08.
In the case of `C#CCCCC` [1-hexyne] + CCCC[P+](CCCC)(CCCC)CCCC.O=S(=O)([N-]S(=O)(=O)C(F)(F)F)C(F)(F)F, the activity coefficient is, setting by setting: (358.15 K) 1.88 ± 0.13; (368.15 K) 1.94 ± 0.13; (378.15 K) 2 ± 0.14; (388.15 K) 2.06 ± 0.14; (398.15 K) 2.11 ± 0.14; (408.15 K) 2.17 ± 0.15.
As to `CCC(=O)CC` [pentan-3-one] + CCCC[P+](CCCC)(CCCC)CCCC.O=S(=O)([N-]S(=O)(=O)C(F)(F)F)C(F)(F)F, the activity coefficient was 0.629 ± 0.043 (358.15 K); 0.66 ± 0.045 (368.15 K); 0.69 ± 0.05 (378.15 K); 0.721 ± 0.048 (388.15 K); 0.75 ± 0.049 (398.15 K); 0.781 ± 0.051 (408.15 K).
